Key:
[1] = target: T1, BRD4 Bromo Domain 2 [BRD4(2)] (Homo sapiens, UniProt O60885); experiment: BRD4(2)/acetylated peptide H4 binding assay (TR-FRET); settings: inhibition of interaction between His6-tagged BRD4(2) (amino acids 357-445) and acetylated histone H4 peptide
T1 construct: N-terminally His6-tagged BRD4(2) (amino acids 357-445); made in house; host or cells: E. coli
Text: Protein-Protein Interaction Assay: BRD4/Acetylated Peptide H4 Binding Assay
2. Assay Description for BRD4 Bromo Domain 2 [BRD4(2)]
To assess the BRD4(2) binding strength of the substances described in this application, the ability thereof to inhibit the interaction between BRD4(2) and acetylated histone H4 in a dose-dependent manner was quantified.
For this purpose, a time-resolved fluorescence resonance energy transfer (TR-FRET) assay was used, which measures the binding between N-terminally His6-tagged BRD4(2) (amino acids 357-445) and a synthetic acetylated histone H4 (Ac-H4) peptide with sequence SGRGK(Ac)GGK(Ac)GLGK(Ac)GGAK(Ac)RHRKVLRDNGSGSK-biotin. The recombinant BRD4(2) protein produced in house according to Filippakopoulos et al., Cell, 2012, 149:214-231 was expressed in E. coli and purified by means of (Ni-NTA) affinity and (Sephadex G-75) size exclusion chromatography. The Ac-H4 peptide can be purchased, for example, from Biosyntan (Berlin, Germany).
In the assay, typically 11 different concentrations of each substance (0.1 nM, 0.33 nM, 1.1 nM, 3.8 nM, 13 nM, 44 nM, 0.15 μM, 0.51 μM, 1.7 μM, 5.9 μM and 20 μM) were analysed as duplicates on the same microtitre plate. For this purpose, 100-fold concentrated solutions in DMSO were prepared by serial dilutions (1:3.4) of a 2 mM stock solution into a clear, 384-well microtitre plate (Greiner Bio-One, Frickenhausen, Germany). From this, 50 nl were transferred into a black test plate (Greiner Bio-One, Frickenhausen, Germany). The test was started by the addition of 2 μl of a 2.5-fold concentrated BRD4(2) solution (final concentration typically 100 nM in the 5 μl of reaction volume) in aqueous assay buffer [50 mM HEPES pH 7.5, 50 mM sodium chloride (NaCl); 50 mM potassium fluoride (KF); 0.25 mM CHAPS and 0.05% serum albumin (BSA)] to the substances in the test plate. This was followed by a 10-minute incubation step at 22° C. for the pre-equilibration of putative complexes between BRD4(2) and the substances.
The mixture was then incubated in the dark at 22° C. for one hour and then at 4° C. for at least 3 hours and for no longer than overnight. The formation of BRD4(2)/Ac-H4 complexes was determined by the measurement of the resonance energy transfer from the streptavidin-Eu chelate to the anti-6His-XL665 antibody present in the reaction. For this purpose, the fluorescence emission was measured at 620 nm and 665 nm after excitation at 330-350 nm in a TR-FRET measuring instrument, for example a Rubystar or Pherastar (both from BMG Lab Technologies, Offenburg, Germany) or a Viewlux (Perkin-Elmer). The ratio of the emissions at 665 nm and at 622 nm was taken as an indicator of the amount of BRD4(2)/Ac-H4 complexes formed.
The data (ratios) obtained were normalized, with 0% inhibition corresponding to the mean from the measurements for a set of controls (typically 32 data points) in which all the reagents were present. In these, in place of test substances, 50 nl of DMSO (100%) were used Inhibition of 100% corresponded to the mean from the measurements for a set of controls (typically 32 data points) in which all the reagents except BRD4(2) were present. The IC50 was determined by regression analysis based on a 4-parameter equation (minimum, maximum, IC50, Hill; Y=max+(min−max)/(1+(X/IC50)Hill)).

MOLP-8 cells = experiment: MOLP-8 cell proliferation assay (alamarBlue); assay type: cell-based; settings: inhibition of cell proliferation, 120 hours, human multiple myeloma cell line
Description: In accordance with the invention, the ability of the substances to inhibit cell proliferation was determined Cell viability was determined by means of the alamarBlue® reagent (Invitrogen) in a Victor X3 Multilabel Reader (Perkin Elmer). The excitation wavelength was 530 nm and the emission wavelength […].
The MOLP-8 cells (DSMZ, ACC 569) were sown at a concentration of 4000 cells/well in 100 μl of growth medium (RPMI1640, 20% FCS) on 96-well microtitre plates.
After overnight incubation at 37° C., the fluorescence values were determined (CI values). Then the plates were treated with various substance dilutions (1E-5 M, 3E-6 M, 1E-6 M, 3E-7 M, 1E-7 M, 3E-8 M, 1E-8 M) and incubated at 37° C. over 96 hours (MOLM-13, B16F10 cells) or 120 hours (MOLP-8 cells). Subsequently, the fluorescence values were determined (CO values). For the data analysis, the CI values were subtracted from the CO values and the results were compared between cells which had been treated with various dilutions of the substance or only with buffer solution. The IC50 values (substance concentration needed for 50% inhibition of cell proliferation) were calculated therefrom.
MOLP-8 human multiple myeloma cell line

Compound	IC50 [1]	IC50 (MOLP-8 cells)
C[C@@H]1C(=O)N(C)c2ccc(Nc3ccc(S(=O)(=O)N(C)C)cc3)cc2N1C1CCCCCC1 [Example 45, 4-{[(3R)-4-cycloheptyl-1,3-dimethyl-2-oxo-1,2,3,4-tetrahydroquinoxalin-6-yl]amino}-N,N-dimethylbenzenesulphonamide]	83 nM	1100 nM
C[C@@H]1C(=O)N(C)c2ccc(Nc3ccc(S(=O)(=O)N4CCN(C)CC4)cc3)cc2N1Cc1ccccc1 [Example 15, (3R)-4-benzyl-1,3-dimethyl-6-({4-[(4-methylpiperazin-1-yl)sulphonyl]phenyl}amino)-3,4-dihydroquinoxalin-2(1H)-one]	51 nM	109 nM
C[C@@H]1C(=O)N(C)c2ccc(Nc3ccc(C(=O)NC4CCN(C)CC4)cc3)cc2N1C1CCOCC1 [Example 26, 4-{[(3R)-1,3-dimethyl-2-oxo-4-(tetrahydro-2H-pyran-4-yl)-1,2,3,4-tetrahydroquinoxalin-6-yl]amino}-N-(1-methylpiperidin-4-yl)benzamide]	391 nM	1030 nM
C[C@@H]1C(=O)N(C)c2ccc(Nc3ccc(C(=O)NC4CC4)cc3)cc2N1C1CCCC1 [Example 2, 4-{[(3R)-4-cyclopentyl-1,3-dimethyl-2-oxo-1,2,3,4-tetrahydroquinoxalin-6-yl]amino}-N-cyclopropylbenzamide]	222 nM	727 nM
CC(C)N1CCN(C(=O)c2ccc(Nc3ccc4c(c3)N(C3CCOCC3)[C@H](C)C(=O)N4C)cc2)CC1 [Example 33]	383 nM	509 nM
C[C@@H]1C(=O)N(C)c2ccc(Nc3ccc(C(=O)N4CCOCC4)cc3)cc2N1C1CCOCC1 [Example 27, (3R)-1,3-dimethyl-6-{[4-(morpholin-4-ylcarbonyl)phenyl]amino}-4-(tetrahydro-2H-pyran-4-yl)-3,4-dihydroquinoxalin-2(1H)-one]	419 nM	1130 nM
C[C@@H]1C(=O)N(C)c2ccc(Nc3ccc(C(=O)NC4CCN(C)CC4)cc3)cc2N1Cc1c(F)cccc1F (stereo in doubt) [Example 39, 4-{[4-(2,6-difluorobenzyl)-1,3-dimethyl-2-oxo-1,2,3,4-tetrahydroquinoxalin-6-yl]amino}-N-(1-methylpiperidin-4-yl)benzamide]	262 nM	1740 nM
COc1ccc(CN2c3cc(Nc4ccc(S(=O)(=O)N5CCOCC5)cc4)ccc3N(C)C(=O)[C@H]2C)cc1 [Example 42, (3R)-4-(4-methoxybenzyl)-1,3-dimethyl-6-{[4-(morpholin-4-ylsulphonyl)phenyl]amino}-3,4-dihydroquinoxalin-2(1H)-one]	68 nM	61 nM
COc1ccc(CN2c3cc(Nc4ccc(S(=O)(=O)N5CCN(C(C)C)CC5)cc4)ccc3N(C)C(=O)[C@H]2C)cc1 [Example 44, (3R)-4-(4-methoxybenzyl)-1,3-dimethyl-6-[(4-{[4-(propan-2-yl)piperazin-1-yl]sulphonyl}phenyl)amino]-3,4-dihydroquinoxalin-2(1H)-one]	73 nM	101 nM
C[C@@H]1C(=O)N(C)c2ccc(Nc3ccc(C(=O)N4CC5(CCS5(=O)=O)C4)cc3)cc2N1Cc1ccccc1 [Example 16, (3R)-4-benzyl-6-({4-[(1,1-dioxido-1-thia-6-azaspiro[3.3]hept-6-yl)carbonyl]phenyl}amino)-1,3-dimethyl-3,4-dihydroquinoxalin-2(1H)-one]	97 nM	96 nM
C[C@@H]1C(=O)N(C)c2ccc(Nc3ccc(C(=O)NC4CCCC4)cc3)cc2N1C1CCCC1 [Example 1, N-cyclopentyl-4-{[(3R)-4-cyclopentyl-1,3-dimethyl-2-oxo-1,2,3,4-tetrahydroquinoxalin-6-yl]amino}benzamide]	326 nM	1470 nM
COc1ccc(CN2c3cc(Nc4ccc(C(=O)NC5CCN(C)CC5)cc4)ccc3N(C)C(=O)[C@H]2C)cc1 [Example 17, 4-{[(3R)-4-(4-methoxybenzyl)-1,3-dimethyl-2-oxo-1,2,3,4-tetrahydroquinoxalin-6-yl]amino}-N-(1-methylpiperidin-4-yl)benzamide]	83 nM	69 nM
COc1ccc(CN2c3cc(Nc4ccc(C(=O)NCC5COC5)cc4)ccc3N(C)C(=O)[C@H]2C)cc1 [Example 19, 4-{[(3R)-4-(4-methoxybenzyl)-1,3-dimethyl-2-oxo-1,2,3,4-tetrahydroquinoxalin-6-yl]amino}-N-(oxetan-3-ylmethyl)benzamide]	110 nM	124 nM
C[C@@H]1C(=O)N(C)c2ccc(Nc3ccc(C(=O)NC4CC4)cc3)cc2N1C1CCOCC1 [Example 35, N-cyclopropyl-4-{[(3R)-1,3-dimethyl-2-oxo-4-(tetrahydro-2H-pyran-4-yl)-1,2,3,4-tetrahydroquinoxalin-6-yl]amino}benzamide]	217 nM	1390 nM
C[C@@H]1C(=O)N(C)c2ccc(Nc3ccc(C(=O)NC4CCC(N5CCN(CC6CC6)CC5)CC4)cc3)cc2N1Cc1c(F)cccc1F (stereo in doubt) [Example 40, N-{4-[4-(cyclopropylmethyl)piperazin-1-yl]cyclohexyl}-4-{[4-(2,6-difluorobenzyl)-1,3-dimethyl-2-oxo-1,2,3,4-tetrahydroquinoxalin-6-yl]amino}benzamide]	386 nM	6620 nM
C[C@@H]1C(=O)N(C)c2ccc(Nc3ccc(C(=O)NC4CN(C)C4)cc3)cc2N1C1CCOCC1 [Example 34, 4-{[(3R)-1,3-dimethyl-2-oxo-4-(tetrahydro-2H-pyran-4-yl)-1,2,3,4-tetrahydroquinoxalin-6-yl]amino}-N-(1-methylazetidin-3-yl)benzamide]	238 nM	1540 nM
COc1ccc(CN2c3cc(Nc4ccc(C(=O)N5CCOCC5)cc4)ccc3N(C)C(=O)[C@H]2C)cc1 [Example 18, (3R)-4-(4-methoxybenzyl)-1,3-dimethyl-6-{[4-(morpholin-4-ylcarbonyl)phenyl]amino}-3,4-dihydroquinoxalin-2(1H)-one]	111 nM	148 nM
CC(C)NC(=O)c1ccc(Nc2ccc3c(c2)N(C2CCCC2)[C@H](C)C(=O)N3C)cc1 [Example 7, 4-{[(3R)-4-cyclopentyl-1,3-dimethyl-2-oxo-1,2,3,4-tetrahydroquinoxalin-6-yl]amino}-N-isopropylbenzamide]	159 nM	637 nM
C[C@@H]1C(=O)N(C)c2ccc(Nc3ccc(S(=O)(=O)N(C)C)cc3)cc2N1C1CCCC1 [Example 3, 4-{[(3R)-4-cyclopentyl-1,3-dimethyl-2-oxo-1,2,3,4-tetrahydroquinoxalin-6-yl]amino}-N,N-dimethylbenzenesulphonamide]	85 nM	301 nM
